Reference: ChEMBL document CHEMBL1671651, “Azithromycin in Pseudomonas aeruginosa biofilms: bactericidal activity and selection of nfxB mutants” (2009)
In brackets after ≈: the same amount, converted by molar mass.

Legend:
Type in all cases: functional
[1] = tested on: Pseudomonas aeruginosa; experiment: Antimicrobial activity against mucA::lox, mutS::lox-deficient Pseudomonas aeruginosa PAOMSAA biofilm harboring nfxB T86C mutant gene selected at 4 ug/ml of azithromycin after 2 passages by Etest method
[2] = tested on: Pseudomonas aeruginosa; experiment: Antimicrobial activity against mucA::lox-deficient Pseudomonas aeruginosa PAOMAB biofilm harboring nfxB G125T mutant gene selected at 0.5 ug/ml of azithromycin after 1 passages by Etest method
[3] = tested on: Pseudomonas aeruginosa; experiment: Antimicrobial activity against mutS::lox-deficient Pseudomonas aeruginosa PAOMSA biofilm harboring nfxB T86C mutant gene selected at 4 ug/ml of azithromycin after 4 passages by Etest method
[4] = tested on: Pseudomonas aeruginosa; experiment: Antimicrobial activity against mucA::lox, mutS::lox-deficient Pseudomonas aeruginosa PAOMSAA biofilm harboring nfxB C89T mutant gene selected at 4 ug/ml of azithromycin after 6 passages by Etest method
[5] = tested on: Pseudomonas aeruginosa; experiment: Antimicrobial activity against mutS::lox-deficient Pseudomonas aeruginosa PAOMSB biofilm harboring nfxB T77C mutant gene selected at 4 ug/ml of azithromycin after 6 passages by Etest method
[6] = tested on: Pseudomonas aeruginosa; experiment: Antimicrobial activity against mucA::lox, mutS::lox-deficient Pseudomonas aeruginosa PAOMSAB biofilm harboring nfxB T544C mutant gene selected at 4 ug/ml of azithromycin after 1 passages by Etest method
[7] = tested on: Pseudomonas aeruginosa; experiment: Antimicrobial activity against mucA::lox, mutS::lox-deficient Pseudomonas aeruginosa PAOMSAA biofilm harboring nfxB C89T mutant gene selected at 0.5 ug/ml of azithromycin after 3 passages by Etest method
[8] = tested on: Pseudomonas aeruginosa; experiment: Antimicrobial activity against mucA::lox-deficient Pseudomonas aeruginosa PAOMAA biofilm harboring nfxB C25T mutant gene selected at 1 ug/ml of azithromycin after 2 passages by Etest method
[9] = tested on: Pseudomonas aeruginosa; experiment: Antimicrobial activity against mutS::lox-deficient Pseudomonas aeruginosa PAOMSA biofilm harboring nfxB G461A mutant gene selected at 4 ug/ml of azithromycin after 5 passages by Etest method
[10] = tested on: Pseudomonas aeruginosa; experiment: Antimicrobial activity against mutS::lox-deficient Pseudomonas aeruginosa PAOMSB biofilm harboring deletion od C534 in nfxB mutant gene selected at 4 ug/ml of azithromycin after 2 passages by Etest method
[11] = tested on: Pseudomonas aeruginosa; experiment: Antimicrobial activity against nfxB gene-deficient Pseudomonas aeruginosa PAONB biofilm by Etest method
[12] = tested on: Pseudomonas aeruginosa; experiment: Antimicrobial activity against mucA::lox, mutS::lox-deficient Pseudomonas aeruginosa PAOMSAB biofilm harboring nfxB T86C mutant gene selected at 4 ug/ml of azithromycin after 2 passages by Etest method
[13] = tested on: Pseudomonas aeruginosa; experiment: Antimicrobial activity against mucA::lox, mutS::lox-deficient Pseudomonas aeruginosa PAOMSAA biofilm harboring nfxB T77C mutant gene selected at 4 ug/ml of azithromycin after 3 passages by Etest method
[14] = tested on: Pseudomonas aeruginosa; experiment: Antimicrobial activity against mutS::lox-deficient Pseudomonas aeruginosa PAOMSA biofilm harboring nfxB C116T mutant gene selected at 1 ug/ml of azithromycin after 1 passages by Etest method
[15] = tested on: Pseudomonas aeruginosa; experiment: Antimicrobial activity against mutS::lox-deficient Pseudomonas aeruginosa PAOMSA biofilm harboring nfxB T86C mutant gene selected at 4 ug/ml of azithromycin after 3 passages by Etest method
[16] = tested on: Pseudomonas aeruginosa; experiment: Antimicrobial activity against mucA::lox, mutS::lox-deficient Pseudomonas aeruginosa PAOMSAB biofilm harboring nfxB C89T mutant gene selected at 4 ug/ml of azithromycin after 6 passages by Etest method
[17] = tested on: Pseudomonas aeruginosa; experiment: Antimicrobial activity against mutS::lox-deficient Pseudomonas aeruginosa PAOMSB biofilm harboring nfxB T380C mutant gene selected at 0.5 ug/ml of azithromycin after 2 passages by Etest method
[18] = tested on: Pseudomonas aeruginosa; experiment: Antimicrobial activity against mutS::lox,nfxB gene-deficient Pseudomonas aeruginosa PAOMSNB biofilm by Etest method
[19] = tested on: Pseudomonas aeruginosa; experiment: Antimicrobial activity against mutS::lox-deficient Pseudomonas aeruginosa PAOMSB biofilm harboring nfxB T41C mutant gene selected at 4 ug/ml of azithromycin after 3 passages by Etest method
[20] = tested on: Pseudomonas aeruginosa; experiment: Antimicrobial activity against mutS::lox-deficient Pseudomonas aeruginosa PAOMS biofilm by Etest method
[21] = tested on: Pseudomonas aeruginosa; experiment: Antimicrobial activity against Pseudomonas aeruginosa PAO1 biofilm by Etest method
[22] = tested on: Pseudomonas aeruginosa; experiment: Antimicrobial activity against mucA::lox, mutS::lox-deficient Pseudomonas aeruginosa PAOMSAB biofilm harboring nfxB C25T mutant gene selected at 1 ug/ml of azithromycin after 2 passages by Etest method
[23] = tested on: Pseudomonas aeruginosa; experiment: Antimicrobial activity against mutS::lox-deficient Pseudomonas aeruginosa PAOMSA biofilm harboring nfxB T533C mutant gene selected at 4 ug/ml of azithromycin after 2 passages by Etest method
[24] = tested on: Pseudomonas aeruginosa; experiment: Antimicrobial activity against mutS::lox,mexD::lox-deficient Pseudomonas aeruginosa PAOMSMxD biofilm by Etest method
[25] = tested on: Pseudomonas aeruginosa; experiment: Antimicrobial activity against Pseudomonas aeruginosa PAO1 A biofilm harboring duplication mutation at nucleotide 333 in nfxB gene selected at 0.5 ug/ml of azithromycin by Etest method
[26] = tested on: Pseudomonas aeruginosa; experiment: Antimicrobial activity against mutS::lox-deficient Pseudomonas aeruginosa PAOMSA biofilm harboring nfxB G539A mutant gene selected at 4 ug/ml of azithromycin after 6 passages by Etest method
[27] = tested on: Pseudomonas aeruginosa; experiment: Antimicrobial activity against mutS::lox-deficient Pseudomonas aeruginosa PAOMSB biofilm harboring nfxB C116T mutant gene selected at 4 ug/ml of azithromycin after 5 passages by Etest method
[28] = tested on: Pseudomonas aeruginosa; experiment: Antimicrobial activity against mutS::lox-deficient Pseudomonas aeruginosa PAOMSB biofilm harboring nfxB T562C mutant gene selected at 4 ug/ml of azithromycin after 4 passages by Etest method
[29] = tested on: Pseudomonas aeruginosa; experiment: Antimicrobial activity against Pseudomonas aeruginosa PAO1 A biofilm harboring deletion mutation at nucleotide 231-244 in nfxB gene selected at 1 ug/ml of azithromycin after 4 passages by Etest method
[30] = tested on: Pseudomonas aeruginosa; experiment: Antimicrobial activity against mexD::lox-deficient Pseudomonas aeruginosa PAOMxD biofilm by Etest method
[31] = tested on: Pseudomonas aeruginosa; experiment: Antimicrobial activity against mucA::lox, mutS::lox-deficient Pseudomonas aeruginosa PAOMSA biofilm by Etest method
[32] = tested on: Pseudomonas aeruginosa; experiment: Antimicrobial activity against Pseudomonas aeruginosa PAO1 A biofilm harboring nfxB T248C mutant gene selected at 4 ug/ml of azithromycin after 4 passages by Etest method
[33] = tested on: Pseudomonas aeruginosa; experiment: Antimicrobial activity against mucA::lox-deficient Pseudomonas aeruginosa PAOMA biofilm by Etest method

SMILES	MIC [1]	MIC [2]	MIC [3]	MIC [4]	MIC [5]	MIC [6]	MIC [7]	MIC [11]	MIC [12]	MIC [13]	MIC [14]	MIC [17]	MIC [18]	MIC [22]	MIC [24]	MIC [25]	MIC [26]	MIC [27]	MIC [28]	MIC [29]	other results
C[C@H]1[C@H](NC(=O)/C(=N\OC(C)(C)C(=O)O)c2csc(N)n2)C(=O)N1S(=O)(=O)O [AZTREONAM]	1 µg/mL	0.5 µg/mL	0.75 µg/mL	1 µg/mL	1 µg/mL	2 µg/mL	1 µg/mL	0.5 µg/mL (≈ 1.15 µM)	1 µg/mL	2 µg/mL	2 µg/mL	0.75 µg/mL	1 µg/mL (≈ 2.3 µM)	0.75 µg/mL	2 µg/mL (≈ 4.59 µM)	0.75 µg/mL	0.75 µg/mL	0.75 µg/mL	1.5 µg/mL	0.5 µg/mL	MIC [8]: 0.75 µg/mL; MIC [9]: 2 µg/mL; MIC [10]: 2 µg/mL; MIC [15]: 1 µg/mL; MIC [16]: 1 µg/mL; MIC [19]: 2 µg/mL; MIC [20]: 2 µg/mL (≈ 4.59 µM); MIC [21]: 2 µg/mL (≈ 4.59 µM); MIC [23]: 0.75 µg/mL; MIC [30]: 2 µg/mL (≈ 4.59 µM); MIC [31]: 2 µg/mL (≈ 4.59 µM); MIC [32]: 0.75 µg/mL; MIC [33]: 2 µg/mL (≈ 4.59 µM)
CO/N=C(\C(=O)N[C@@H]1C(=O)N2C(C(=O)[O-])=C(C[N+]3(C)CCCC3)CS[C@H]12)c1csc(N)n1 [CEFEPIME]	16 µg/mL	12 µg/mL	6 µg/mL	16 µg/mL	12 µg/mL	12 µg/mL	12 µg/mL	8 µg/mL (≈ 16.6 µM)	12 µg/mL	12 µg/mL	12 µg/mL	12 µg/mL	8 µg/mL (≈ 16.6 µM)	8 µg/mL	1.5 µg/mL (≈ 3.12 µM)	12 µg/mL	12 µg/mL	12 µg/mL	6 µg/mL	12 µg/mL	MIC [8]: 12 µg/mL; MIC [9]: 8 µg/mL; MIC [10]: 12 µg/mL; MIC [15]: 16 µg/mL; MIC [16]: 16 µg/mL; MIC [19]: 8 µg/mL; MIC [20]: 1.5 µg/mL (≈ 3.12 µM); MIC [21]: 1.5 µg/mL (≈ 3.12 µM); MIC [23]: 8 µg/mL; MIC [30]: 1.5 µg/mL (≈ 3.12 µM); MIC [31]: 1.5 µg/mL (≈ 3.12 µM); MIC [32]: 12 µg/mL; MIC [33]: 1.5 µg/mL (≈ 3.12 µM)
CC(C)(O/N=C(\C(=O)N[C@@H]1C(=O)N2C(C(=O)[O-])=C(C[n+]3ccccc3)CS[C@H]12)c1csc(N)n1)C(=O)O [CEFTAZIDIME]	1.5 µg/mL	0.5 µg/mL	1.5 µg/mL	1.5 µg/mL	2 µg/mL	2 µg/mL	1.5 µg/mL	1.5 µg/mL (≈ 2.74 µM)	2 µg/mL	2 µg/mL	1 µg/mL	1 µg/mL	1.5 µg/mL (≈ 2.74 µM)	1 µg/mL	1.5 µg/mL (≈ 2.74 µM)	1.5 µg/mL	1.5 µg/mL	1.5 µg/mL	1.5 µg/mL	1 µg/mL	MIC [8]: 1 µg/mL; MIC [9]: 2 µg/mL; MIC [10]: 2 µg/mL; MIC [15]: 2 µg/mL; MIC [16]: 1.5 µg/mL; MIC [19]: 2 µg/mL; MIC [20]: 1.5 µg/mL (≈ 2.74 µM); MIC [21]: 1.5 µg/mL (≈ 2.74 µM); MIC [23]: 1.5 µg/mL; MIC [30]: 1.5 µg/mL (≈ 2.74 µM); MIC [31]: 1.5 µg/mL (≈ 2.74 µM); MIC [32]: 1.5 µg/mL; MIC [33]: 1.5 µg/mL (≈ 2.74 µM)
O=C(O)c1cn(C2CC2)c2cc(N3CCNCC3)c(F)cc2c1=O [CIPROFLOXACIN]	3 µg/mL	3 µg/mL	1 µg/mL	3 µg/mL	–	–	3 µg/mL	1 µg/mL (≈ 3.02 µM)	3 µg/mL	3 µg/mL	4 µg/mL	4 µg/mL	1 µg/mL (≈ 3.02 µM)	3 µg/mL	0.094 µg/mL (≈ 0.284 µM)	3 µg/mL	1 µg/mL	1.5 µg/mL	0.75 µg/mL	3 µg/mL	–
C[C@@H](O)[C@H]1C(=O)N2C(C(=O)O)=C(SCCNC=N)C[C@H]12 [IMIPENEM ANHYDROUS]	0.38 µg/mL	0.25 µg/mL	0.19 µg/mL	0.38 µg/mL	0.5 µg/mL	1 µg/mL	0.38 µg/mL	0.19 µg/mL (≈ 0.635 µM)	0.25 µg/mL	1 µg/mL	1 µg/mL	0.25 µg/mL	0.5 µg/mL (≈ 1.67 µM)	0.25 µg/mL	1.5 µg/mL (≈ 5.01 µM)	0.25 µg/mL	0.25 µg/mL	0.38 µg/mL	1 µg/mL	0.38 µg/mL	MIC [8]: 0.38 µg/mL; MIC [9]: 1.5 µg/mL; MIC [10]: 1 µg/mL; MIC [15]: 0.25 µg/mL; MIC [16]: 0.38 µg/mL; MIC [19]: 1 µg/mL; MIC [20]: 1.5 µg/mL (≈ 5.01 µM); MIC [21]: 1.5 µg/mL (≈ 5.01 µM); MIC [23]: 0.38 µg/mL; MIC [30]: 1.5 µg/mL (≈ 5.01 µM); MIC [31]: 1.5 µg/mL (≈ 5.01 µM); MIC [32]: 0.38 µg/mL; MIC [33]: 1 µg/mL (≈ 3.34 µM)
